{"source": "paper PMC5698418", "about": "(Nature Communications, 2017)", "key": {"HDAC6": {"biological_target": "T1, HDAC6 (Homo sapiens, UniProt Q9UBN7)", "T1 construct": "purchased BPS Bioscience (San Diego, CA), contract assay service", "T1 sequence (Q9UBN7 whole entry)": "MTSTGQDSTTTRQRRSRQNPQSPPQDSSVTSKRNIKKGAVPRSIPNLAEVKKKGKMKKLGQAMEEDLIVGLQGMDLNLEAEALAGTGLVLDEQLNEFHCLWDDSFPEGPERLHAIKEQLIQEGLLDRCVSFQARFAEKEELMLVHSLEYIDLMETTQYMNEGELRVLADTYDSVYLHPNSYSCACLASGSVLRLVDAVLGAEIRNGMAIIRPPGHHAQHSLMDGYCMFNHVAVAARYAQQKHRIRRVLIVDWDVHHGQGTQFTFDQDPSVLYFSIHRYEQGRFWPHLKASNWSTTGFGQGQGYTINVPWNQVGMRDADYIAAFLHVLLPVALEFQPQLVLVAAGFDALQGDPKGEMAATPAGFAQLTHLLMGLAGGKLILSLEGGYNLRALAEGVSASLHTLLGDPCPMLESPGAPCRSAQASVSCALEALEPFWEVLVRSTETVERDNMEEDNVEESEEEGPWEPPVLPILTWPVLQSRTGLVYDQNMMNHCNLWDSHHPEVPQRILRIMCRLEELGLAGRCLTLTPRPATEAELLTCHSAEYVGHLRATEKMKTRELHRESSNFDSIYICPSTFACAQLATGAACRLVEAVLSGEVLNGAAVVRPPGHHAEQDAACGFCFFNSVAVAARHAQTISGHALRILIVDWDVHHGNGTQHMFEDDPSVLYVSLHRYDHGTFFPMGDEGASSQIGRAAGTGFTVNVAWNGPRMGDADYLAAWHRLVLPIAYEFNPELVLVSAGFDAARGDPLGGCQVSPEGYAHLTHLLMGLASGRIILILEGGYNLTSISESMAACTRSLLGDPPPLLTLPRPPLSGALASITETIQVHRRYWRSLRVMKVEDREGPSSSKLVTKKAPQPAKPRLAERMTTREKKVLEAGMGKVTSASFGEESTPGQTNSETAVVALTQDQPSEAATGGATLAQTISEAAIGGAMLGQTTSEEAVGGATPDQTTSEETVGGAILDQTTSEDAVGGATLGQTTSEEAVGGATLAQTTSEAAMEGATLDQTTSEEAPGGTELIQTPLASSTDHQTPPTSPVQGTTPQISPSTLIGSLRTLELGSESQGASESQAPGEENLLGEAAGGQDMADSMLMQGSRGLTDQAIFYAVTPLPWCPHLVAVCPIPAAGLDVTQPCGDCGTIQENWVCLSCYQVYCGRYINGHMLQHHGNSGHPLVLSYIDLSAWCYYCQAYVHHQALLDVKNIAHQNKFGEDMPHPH", "assay": "Biochemical HDAC assay (BPS Bioscience), HDAC6", "conditions": "25 µM"}, "[1]": {"test_system": "BDNF-induced nuclear Arc expression in primary cortical neurons", "assay": "Chemogenomic screen: high-content image-based assay of BDNF-induced nuclear Arc expression (96-well)", "format": "cell-based, mouse", "in_short": "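Nuclear Arc immunofluorescence is quantified automatically within an acetyl-H3K9-defined nuclear mask from ×40 images. Cultures are DIV13 mouse forebrain cortical neurons seeded at 30,000 per well and exposed to BDNF plus compound at a final 16.7 µM, with triplicate biological replicates.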"}, "[2]": {"parameters": "method as in PMID 21370928, PMID 23200855", "conditions": "ref [34],[42]; cited from earlier work"}, "[3]": {"test_system": "acetyl-H3K9 in dentate gyrus", "assay": "Acetyl-H3K9 immunohistochemistry in dentate gyrus after intraperitoneal injection", "format": "in vivo, mouse", "conditions": "30 mg kg−1 i.p., 3 h, home cage", "description": "Male mice (C57BL/6 strain) were received as 6-weeks old and habituated to their home cage as trios for 2 weeks before conducting the experiments. During the habituation time period, mice were kept on a light–dark cycle with minimal disruption and unrestricted access to food and water. On experiment day, mice from the same cage were taken and randomly subjected to intraperitoneal injection of vehicle (25% Kolliphor EL (Sigma-Aldrich, C5135), 10% DMSO) or AK-7 (30 mg kg^−1) solution and immediately placed back in their home cage or transferred to a novel environment. […]\n(§1) The following approach was adopted to quantify the number of Arc-positive cell bodies and average acetyl-H3K9 immunostaining pixel intensity in dentate gyrus. First, complete dentate gyrus overlapping grayscale images of DAPI fluorescence and Arc or acetyl-H3K9 immunostaining were collected using a ×20 objective and Nikon Eclipse 90i upright microscope equipped with a motorized stage and image stitching capability. Second, the boundary of the dentate gyrus based on the DAPI fluorescence was determined in each image set with the ImageJ wand tool. Finally, this information was used for image segmentation and quantification of Arc-positive cell bodies or average acetyl-H3K9 immunostaining pixel intensity within each dentate gyrus images. […]"}, "HDAC1": {"biological_target": "T2, HDAC1 (Homo sapiens, UniProt Q13547)", "T2 construct": "purchased BPS Bioscience (San Diego, CA), contract assay service", "T2 sequence (Q13547 whole entry)": "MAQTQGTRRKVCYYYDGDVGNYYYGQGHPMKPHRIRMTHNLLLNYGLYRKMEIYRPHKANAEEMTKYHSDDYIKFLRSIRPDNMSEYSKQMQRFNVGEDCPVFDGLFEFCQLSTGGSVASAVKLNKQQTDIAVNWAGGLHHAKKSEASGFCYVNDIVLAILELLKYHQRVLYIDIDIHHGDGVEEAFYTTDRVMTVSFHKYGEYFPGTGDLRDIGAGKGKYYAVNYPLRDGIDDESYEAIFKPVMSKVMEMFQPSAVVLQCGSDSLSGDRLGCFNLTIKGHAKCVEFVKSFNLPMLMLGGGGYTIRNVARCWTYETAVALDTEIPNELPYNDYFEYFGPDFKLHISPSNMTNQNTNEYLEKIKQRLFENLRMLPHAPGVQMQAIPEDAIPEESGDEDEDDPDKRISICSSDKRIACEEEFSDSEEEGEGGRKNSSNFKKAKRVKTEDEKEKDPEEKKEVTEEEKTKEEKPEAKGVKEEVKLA", "assay": "Biochemical HDAC assay (BPS Bioscience), HDAC1", "conditions": "25 µM"}, "HDAC2": {"biological_target": "T3, HDAC2 (Homo sapiens, UniProt Q92769)", "T3 construct": "purchased BPS Bioscience (San Diego, CA), contract assay service", "T3 sequence (Q92769 whole entry)": "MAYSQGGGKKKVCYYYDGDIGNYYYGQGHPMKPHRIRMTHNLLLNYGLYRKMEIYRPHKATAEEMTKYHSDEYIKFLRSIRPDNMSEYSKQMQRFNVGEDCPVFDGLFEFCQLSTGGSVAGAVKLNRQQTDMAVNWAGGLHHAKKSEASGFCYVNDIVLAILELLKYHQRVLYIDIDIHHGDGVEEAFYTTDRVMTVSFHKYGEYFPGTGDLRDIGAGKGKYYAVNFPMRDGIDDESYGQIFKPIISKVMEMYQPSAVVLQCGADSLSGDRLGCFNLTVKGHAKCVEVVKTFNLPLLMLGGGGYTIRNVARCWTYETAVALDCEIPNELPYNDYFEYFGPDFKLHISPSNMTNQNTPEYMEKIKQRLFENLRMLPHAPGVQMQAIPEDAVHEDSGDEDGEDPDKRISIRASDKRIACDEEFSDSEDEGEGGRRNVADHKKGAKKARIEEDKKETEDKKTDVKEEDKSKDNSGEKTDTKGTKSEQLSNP", "assay": "Biochemical HDAC assay (BPS Bioscience), HDAC2", "conditions": "25 µM"}, "[4]": {"test_system": "AMPAR currents in primary cortical neurons", "assay": "Single-cell electrophysiology of AMPA-mediated mEPSCs", "format": "cell-based, mouse", "description": "Primary cortical neurons cultured on glass coverslips were recorded at DIV15 in voltage clamp mode. The external solution was kept at 25 °C and contained 120 mM NaCl, 2 mM KCl, 1 mM MgCl2, 1.5 mM CaCl2, 10 mM 4-(2-hydroxyethyl)-1-piperazineethane-sulfonic acid (HEPES) and 15 mM glucose. […]. Patch recording pipettes (3–6 MΩ) were filled with an internal solution (pH 7.2). The internal solution contained 120 mM K-gluconate, 6 mM NaCl, 1 mM MgCl2, 10 mM HEPES, and 0.2 mM ethylene glycol tetraacetic acid. Data were acquired using an HEKA EPC-10 patch-clamp amplifier interfaced with PatchMaster software and analyzed using FitMaster software (HEKA Elektronik, Holliston, MA) and MiniAnalysis (Synaptosoft, Fort Lee, NJ). Miniature EPSCs were recorded for a minimum of 2 min at a holding potential of −80 mV. Analysis of synaptic event data was performed using MiniAnalysis software with event detection threshold set at maximum root mean squared noise level (5 pA). Recordings of synaptic events were assessed for frequency (Hz) and mean amplitude (pA)."}, "acetyl-H3K9": {"test_system": "acetyl-H3K9", "assay": "Acetyl-H3K9 immunofluorescence in neuronal nuclei (multiplexed in screen)", "format": "cell-based, mouse", "conditions": "screen, 16.7 µM", "description": "To increase the throughput of our pharmacological screening for modulators of Arc, the above mentioned assay was adapted to cultures of mouse primary cortical neurons in 96-well plates.\nScreening of compounds in the chemogenomic library was carried out using DIV13 primary forebrain cortical neurons cultured on poly-L-lysine/laminin-coated 96-well plates (Ibidi USA, Madison, WI). Cells were seeded at a density of 30,000 cells per well and treated with the compound library and BDNF according to the experimental design presented in Fig. 3a. After experimental treatment, cells were processed for Arc and acetyl-H3K9 immunocytochemistry according to the protocol described above. Both antigens (Arc and acetyl-H3K9) were imaged using an IN Cell Analyzer 6000 imaging system and a ×40 objective. […] High-throughput quantification of nuclear Arc immunofluorescence signal was performed in a similar fashion than the low-throughput procedure described above but with the exception that acetyl-H3K9 was used as a nuclear mask to guide the automated quantification of nuclear Arc immunofluorescence signal."}, "[5]": {"test_system": "Arc protein in dentate gyrus", "assay": "Arc immunohistochemistry in dentate gyrus after intraperitoneal injection", "format": "in vivo, mouse", "conditions": "30 mg kg−1 i.p., 3 h", "description": "Male mice (C57BL/6 strain) were received as 6-weeks old and habituated to their home cage as trios for 2 weeks before conducting the experiments. During the habituation time period, mice were kept on a light–dark cycle with minimal disruption and unrestricted access to food and water. On experiment day, mice from the same cage were taken and randomly subjected to intraperitoneal injection of vehicle (25% Kolliphor EL (Sigma-Aldrich, C5135), 10% DMSO) or AK-7 (30 mg kg^−1) solution and immediately placed back in their home cage or transferred to a novel environment. The novel environment consisted of a large cage placed in a different room with new bedding, food, as well as multiple objects like tunnel, running wheel, igloo, and aspen labyrinth that the mice could freely explore. About 3 h after the injection procedure, mice were rapidly anesthetized and killed by decapitation. Finally, brain tissues were harvested and flash frozen in a dry ice/isopentane bath and stored at −80 °C. All experiments were approved by the Animal Care and Use Committee of the Massachusetts General Hospital and carried out according to institutional guidelines.\nCoronal sections containing the hippocampus from all animals were cut from the frozen blocks at a thickness of 20 µm with a CM3050 cryostat (Leica, Nussloch, Germany). […]\nas §1"}}}
{"smiles": "O=C(Nc1cccc(Br)c1)c1cccc(S(=O)(=O)N2CCCCCC2)c1", "note": "[AK-7]", "values": [{"measurement": "inhibitory activity toward HDAC6", "setting": "HDAC6", "result": "failed to show any inhibitory activity"}, {"measurement": "rank among potentiators of BDNF-induced nuclear Arc expression in screen", "setting": "[1]; 16.7 µM, three biological replicates", "result": "first"}, {"measurement": "Percentage of cell with nuclear Arc immunostaining above 2σ threshold", "setting": "[1]; chemogenomic (SMART) screen, BDNF-induced nuclear Arc expression, primary cortical neurons, BDNF control 19.5", "result": 61.6, "unit": "%"}, {"measurement": "Fold-change — Normalized to DMSO control (BDNF)", "setting": "[1]; nuclear Arc-positive cells relative to DMSO + BDNF control, negative values = decrease", "result": 3.2, "unit": "fold"}, {"measurement": "blood–brain barrier crossing", "setting": "[2]", "result": "can efficiently cross the blood–brain barrier"}, {"measurement": "acetyl-H3K9 immunofluorescence staining intensity in dentate gyrus vs vehicle", "setting": "[3]", "result": "small but statistically significant increase"}, {"measurement": "inhibitory activity toward HDAC1", "setting": "HDAC1", "result": "failed to show any inhibitory activity"}, {"measurement": "inhibitory activity toward HDAC2", "setting": "HDAC2", "result": "failed to show any inhibitory activity"}, {"measurement": "mEPSC amplitude", "setting": "[4]; AK-7 and BDNF 6 h vs BDNF alone, DIV15", "result": "significant decrease in the amplitude of mEPSCs"}, {"measurement": "mEPSC frequency", "setting": "[4]; untreated, BDNF alone, AK-7 plus BDNF", "result": "all similar"}, {"measurement": "impact on acetyl-H3K9 immunofluorescence (Z-score)", "setting": "acetyl-H3K9", "result": "increasing effect of intermediate intensity"}, {"measurement": "Arc immunofluorescence signal intensity in cell bodies vs vehicle", "setting": "[5]; home cage", "result": "not statistically different"}, {"measurement": "number of neurons with prominent Arc immunostaining in dentate gyrus vs vehicle", "setting": "[5]; home cage", "result": "more than eight times"}, {"measurement": "number of Arc immunopositive cell bodies in dentate gyrus vs vehicle", "setting": "[5]; novel environment", "result": "did not led to more Arc immunopositive cell bodies"}]}
